Reference: PubChem BioAssay (NCI)
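GI50 = concentration required for 50% inhibition of growth. The concentration for full growth arrest is given as TGI.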

What was measured:
Test in all cases: inhibition of tumour cell growth, NCI panel, 384-well format
A549 NSCLC = test system: A549 NSCLC
BT-549 breast = test system: BT-549 breast
COLO 205 colon = test system: COLO 205 colon
DU-145 prostate = test system: DU-145 prostate
HCC-2998 colon = test system: HCC-2998 colon
HCT-116 colon = test system: HCT-116 colon
HCT-15 colon = test system: HCT-15 colon
HL-60(TB) leukemia = test system: HL-60(TB) leukemia
HOP-62 NSCLC = test system: HOP-62 NSCLC
HS 578T breast = test system: HS 578T breast
IGROV1 ovarian = test system: IGROV1 ovarian
K-562 leukemia = test system: K-562 leukemia
KM12 colon = test system: KM12 colon
LOX IMVI melanoma = test system: LOX IMVI melanoma
MALME-3M melanoma = test system: MALME-3M melanoma
MCF7 breast = test system: MCF7 breast
MDA-MB-435 melanoma = test system: MDA-MB-435 melanoma
MDA-MB-468 breast = test system: MDA-MB-468 breast
MOLT-4 leukemia = test system: MOLT-4 leukemia
NCI-H226 lung = test system: NCI-H226 lung
NCI-H23 lung = test system: NCI-H23 lung
NCI-H322M lung = test system: NCI-H322M lung
NCI-H460 NSCLC = test system: NCI-H460 NSCLC
NCI-H522 lung = test system: NCI-H522 lung
NCI/ADR-RES ovarian = test system: NCI/ADR-RES ovarian
OVCAR-3 ovarian = test system: OVCAR-3 ovarian
OVCAR-4 ovarian = test system: OVCAR-4 ovarian
OVCAR-5 ovarian = test system: OVCAR-5 ovarian
PC-3 prostate = test system: PC-3 prostate
RPMI-8226 leukemia = test system: RPMI-8226 leukemia
RXF 393 renal = test system: RXF 393 renal
SF-268 CNS = test system: SF-268 CNS
SF-295 CNS = test system: SF-295 CNS
SF-539 CNS = test system: SF-539 CNS
SK-MEL-2 melanoma = test system: SK-MEL-2 melanoma
SK-MEL-28 melanoma = test system: SK-MEL-28 melanoma
SK-MEL-5 melanoma = test system: SK-MEL-5 melanoma
SK-OV-3 ovarian = test system: SK-OV-3 ovarian
SN12C renal = test system: SN12C renal
SNB-75 CNS = test system: SNB-75 CNS
SR leukemia = test system: SR leukemia
SW-620 colon = test system: SW-620 colon
T-47D breast = test system: T-47D breast
U251 glioblastoma = test system: U251 glioblastoma
UACC-257 melanoma = test system: UACC-257 melanoma
UACC-62 melanoma = test system: UACC-62 melanoma
UO-31 renal = test system: UO-31 renal

COc1ccc([C@@H](O)c2cc(-c3ncnc4cc(N5CCOCC5)ccc34)c(F)cc2Cl)nn1
GI50 (A549 NSCLC): 2.6 µM
TGI (A549 NSCLC): 12.3 µM
GI50 (BT-549 breast): 1.19 µM
TGI (BT-549 breast): 9.64 µM
GI50 (COLO 205 colon): 3.52 µM
TGI (COLO 205 colon): 11.1 µM
GI50 (DU-145 prostate): 4.21 µM
TGI (DU-145 prostate): 18.8 µM
GI50 (HCC-2998 colon): 3.21 µM
TGI (HCC-2998 colon): 11.4 µM
GI50 (HCT-116 colon): 3.88 µM
TGI (HCT-116 colon): 16.4 µM
GI50 (HCT-15 colon): 3.49 µM
TGI (HCT-15 colon): 15 µM
GI50 (HL-60(TB) leukemia): 0.522 µM
TGI (HL-60(TB) leukemia): 1.94 µM
GI50 (HOP-62 NSCLC): 4.86 µM
TGI (HOP-62 NSCLC): 26 µM
GI50 (HS 578T breast): 0.864 µM
TGI (HS 578T breast): 3.7 µM
GI50 (IGROV1 ovarian): 0.682 µM
TGI (IGROV1 ovarian): 2.45 µM
GI50 (K-562 leukemia): 3.55 µM
TGI (K-562 leukemia): 22 µM
GI50 (KM12 colon): 5.81 µM
TGI (KM12 colon): 19 µM
GI50 (LOX IMVI melanoma): 1.81 µM
TGI (LOX IMVI melanoma): 4.44 µM
GI50 (MALME-3M melanoma): 1.66 µM
TGI (MALME-3M melanoma): 10.7 µM
GI50 (MCF7 breast): 0.843 µM
TGI (MCF7 breast): 10.4 µM
GI50 (MDA-MB-435 melanoma): 5.07 µM
TGI (MDA-MB-435 melanoma): 20.6 µM
GI50 (MDA-MB-468 breast): 1.03 µM
TGI (MDA-MB-468 breast): 4.31 µM
GI50 (MOLT-4 leukemia): 0.892 µM
TGI (MOLT-4 leukemia): 2.31 µM
GI50 (NCI-H226 lung): 3.64 µM
TGI (NCI-H226 lung): 24.6 µM
GI50 (NCI-H23 lung): 2.49 µM
TGI (NCI-H23 lung): 14.9 µM
GI50 (NCI-H322M lung): 3.88 µM
TGI (NCI-H322M lung): 21 µM
GI50 (NCI-H460 NSCLC): 2.19 µM
TGI (NCI-H460 NSCLC): 13.1 µM
GI50 (NCI-H522 lung): 1.29 µM
TGI (NCI-H522 lung): 8.26 µM
GI50 (NCI/ADR-RES ovarian): 3.97 µM
TGI (NCI/ADR-RES ovarian): 17.6 µM
GI50 (OVCAR-3 ovarian): 1.17 µM
TGI (OVCAR-3 ovarian): 9.62 µM
GI50 (OVCAR-4 ovarian): 5.02 µM
TGI (OVCAR-4 ovarian): 26.2 µM
GI50 (OVCAR-5 ovarian): 3.47 µM
TGI (OVCAR-5 ovarian): 21 µM
GI50 (PC-3 prostate): 0.889 µM
TGI (PC-3 prostate): 11.1 µM
GI50 (RPMI-8226 leukemia): 1.09 µM
TGI (RPMI-8226 leukemia): 2.86 µM
GI50 (RXF 393 renal): 0.553 µM
TGI (RXF 393 renal): 3.3 µM
GI50 (SF-268 CNS): 6.38 µM
TGI (SF-268 CNS): 26.8 µM
GI50 (SF-295 CNS): 1.87 µM
TGI (SF-295 CNS): 12.6 µM
GI50 (SF-539 CNS): 3.38 µM
TGI (SF-539 CNS): 28.4 µM
GI50 (SK-MEL-2 melanoma): 16.1 µM
TGI (SK-MEL-2 melanoma): 31.2 µM
GI50 (SK-MEL-28 melanoma): 2.39 µM
TGI (SK-MEL-28 melanoma): 27.8 µM
GI50 (SK-MEL-5 melanoma): 1.61 µM
TGI (SK-MEL-5 melanoma): 5.92 µM
GI50 (SK-OV-3 ovarian): 1.57 µM
TGI (SK-OV-3 ovarian): 6.2 µM
GI50 (SN12C renal): 1.47 µM
TGI (SN12C renal): 17.1 µM
GI50 (SNB-75 CNS): 0.668 µM
TGI (SNB-75 CNS): 3.15 µM
GI50 (SR leukemia): 6.08 µM
TGI (SR leukemia): 19.5 µM
GI50 (SW-620 colon): 5.21 µM
TGI (SW-620 colon): 18.9 µM
GI50 (T-47D breast): 0.531 µM
TGI (T-47D breast): 2.61 µM
GI50 (U251 glioblastoma): 8.43 µM
TGI (U251 glioblastoma): 26.1 µM
GI50 (UACC-257 melanoma): 3.59 µM
TGI (UACC-257 melanoma): 17.8 µM
GI50 (UACC-62 melanoma): 1.16 µM
TGI (UACC-62 melanoma): 11.8 µM
GI50 (UO-31 renal): 1.95 µM
TGI (UO-31 renal): 11.6 µM
